# Laboratory results published in patent US12655185B2, “Peptide inhibitors of interleukin-23 and their use to treat inflammatory diseases” (Protagonist Therapeutics, Inc., priority 2016, dated 2026).
# Bridge positions count the residues as written; N and C are the ends. Peptide text beside a SMILES is read from it.
# Target: T1, IL-23 binding to IL23R_huFC (human IL-23R) (Homo sapiens, UniProt P29460+Q9NPF7)
# T1 sequence (Q9NPF7 20-189): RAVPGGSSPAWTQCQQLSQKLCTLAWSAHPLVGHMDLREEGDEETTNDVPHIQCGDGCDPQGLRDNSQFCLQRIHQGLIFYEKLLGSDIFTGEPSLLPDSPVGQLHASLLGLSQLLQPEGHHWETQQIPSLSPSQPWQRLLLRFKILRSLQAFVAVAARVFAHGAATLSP
# T1 sequence (P29460 23-328): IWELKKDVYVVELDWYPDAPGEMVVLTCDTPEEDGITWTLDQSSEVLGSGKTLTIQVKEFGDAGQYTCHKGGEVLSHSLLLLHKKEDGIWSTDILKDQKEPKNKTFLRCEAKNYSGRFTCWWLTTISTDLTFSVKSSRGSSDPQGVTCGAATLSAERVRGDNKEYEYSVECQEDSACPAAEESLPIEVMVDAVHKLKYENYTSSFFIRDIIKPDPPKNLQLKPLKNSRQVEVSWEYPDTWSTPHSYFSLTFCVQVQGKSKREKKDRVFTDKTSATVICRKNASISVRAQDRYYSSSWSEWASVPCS
# Assay: IL23-IL23R Competitive Binding ELISA
# Details: inhibition of IL-23/IL-23R binding; IL-23 0.9 nM; class symbols; read-out: IC50 IL23R_huFC
# Procedure: Immulon® 4HBX plate was coated with 200 ng/well of IL23R_huFC and incubated overnight at 4° C. […] Serial dilutions of test peptides and IL-23 at a final concentration of 0.9 nM diluted in PBS were added to each well and incubated for 2 hours at room temperature. After the wells were washed, bound IL-23 was detected by incubation with 50 ng/well of goat anti-p40 polyclonal antibodies (R&D Systems #AF309) diluted in PBS for 1 hour at room temperature. The wells were again washed four times with PBST. […] The plate was finally washed as above. Signals were visualized with TMB One Component HRP Membrane Substrate, quenched with 2 M sulfuric acid and read spectrophotometrically at 450 nm.
row,Compound,IC50
1,CC[C@H](C)[C@@H]1NC(=O)[C@H](CCCCN)NC(=O)[C@H](C)NC(=O)[C@H](C)NC(=O)[C@H](CCCNC(=N)N)NC(=O)[C@H](CCC(N)=O)NC(=O)[C@H](CCC(=O)O)NC(=O)[C@H](CCC(N)=O)NC(=O)[C@H](CC(N)=O)NC(=O)[C@H](CC(C)C)NC(=O)[C@H](CC(N)=O)NC(=O)[C@@H]2CCCN2C(=O)[C@H](CC(=O)O)NC(=O)[C@H](C(C)C)NC(=O)CNC(=O)[C@H](C)NC(=O)[C@H](CCC(=O)O)NC(=O)[C@H](CO)NC(=O)[C@H](CCSC)NC(=O)[C@H](CCCNC(=N)N)NC(=O)[C@H](CCCNC(=N)N)NC(=O)[C@H](CC(C)C)NC(=O)[C@@H](NC(=O)[C@H](CCC(N)=O)NC(=O)[C@H](CCSC)NC(=O)[C@H](CC(N)=O)NC(=O)[C@H](Cc2ccccc2)NC(C)=O)CSSC[C@@H](C(N)=O)NC(=O)[C@H](CC(=O)O)NC(=O)[C@H](CC(=O)O)NC(=O)[C@H](CCSC)NC(=O)[C@H]([C@@H](C)CC)NC(=O)[C@H](CO)NC(=O)[C@H](CCCCN)NC1=O [Peptide 20] (Ac-FNMQCLRRMSEAGVDPNLNQEQRAAKIKSIMDDC-NH2; disulfide 5-34),1 to 10 µM
2,CC[C@H](C)[C@@H]1NC(=O)[C@H](CCCNC(=N)N)NC(=O)[C@H](C)NC(=O)[C@H](CC(N)=O)NC(=O)[C@H](CCCNC(=N)N)NC(=O)[C@H](CC(=O)O)NC(=O)[C@H](CCC(=O)O)NC(=O)[C@H](CCC(=O)O)NC(=O)[C@H](CC(N)=O)NC(=O)[C@H](CC(C)C)NC(=O)[C@H](CC(N)=O)NC(=O)[C@@H]2CCCN2C(=O)[C@H](CC(N)=O)NC(=O)[C@H](C)NC(=O)[C@H](C)NC(=O)[C@H](C)NC(=O)[C@H](Cc2c[nH]c3ccccc23)NC(=O)[C@H](Cc2ccc(O)cc2)NC(=O)[C@H](Cc2ccccc2)NC(=O)[C@H](CC(C)C)NC(=O)[C@H](CCCNC(=N)N)NC(=O)[C@H](CCC(N)=O)NC(=O)[C@@H](NC(=O)[C@H](Cc2ccccc2)NC(=O)[C@H](CCSC)NC(=O)[C@H](CC(N)=O)NC(=O)[C@H](Cc2ccccc2)NC(C)=O)CSSC[C@@H](C(N)=O)NC(=O)CNC(=O)[C@H](CC(=O)O)NC(=O)[C@H](CCCNC(=N)N)NC(=O)[C@H](Cc2ccccc2)NC(=O)[C@H](CO)NC(=O)[C@H](CC(C)C)NC1=O [Peptide 3] (Ac-FNMFCQRLFYWAAANPNLNEEDRNARILSFRDGC-NH2; disulfide 5-34),10 to 100 µM
3,CC[C@H](C)[C@@H]1NC(=O)[C@H](CO)NC(=O)[C@H](CCCCN)NC(=O)[C@H](C)NC(=O)[C@H](CCCCN)NC(=O)[C@H](C)NC(=O)[C@H](Cc2c[nH]c3ccccc23)NC(=O)[C@H](CCCNC(=N)N)NC(=O)[C@H](CCC(N)=O)NC(=O)[C@H](CCC(=O)O)NC(=O)[C@H](CCC(N)=O)NC(=O)[C@H](CC(N)=O)NC(=O)[C@H](CC(C)C)NC(=O)[C@H](CC(N)=O)NC(=O)[C@@H]2CCCN2C(=O)[C@H](CC(=O)O)NC(=O)[C@H](C(C)C)NC(=O)CNC(=O)[C@H](C)NC(=O)[C@H](CCC(=O)O)NC(=O)[C@H](CO)NC(=O)[C@H](CCSC)NC(=O)[C@H](CCCNC(=N)N)NC(=O)[C@H](CCCNC(=N)N)NC(=O)[C@H](CC(C)C)NC(=O)[C@@H](NC(=O)[C@H](CCC(N)=O)NC(=O)[C@H](CCSC)NC(=O)[C@H](CC(N)=O)NC(=O)[C@H](Cc2ccccc2)NC(C)=O)CSSC[C@@H](C(N)=O)NC(=O)[C@H](CC(=O)O)NC(=O)[C@H](CC(=O)O)NC(=O)[C@H](CCSC)NC1=O [Peptide 21] (Ac-FNMQCLRRMSEAGVDPNLNQEQRWAKAKSIMDDC-NH2; disulfide 5-34),1 to 10 µM
